Laboratory results: patent US20240156825A1, “USE OF SELECTIVE VEGFR2 AND FGFR1 INHIBITORS” (Fountain Therapeutics Inc., priority 2022, published 2024)

Key:
any gene target = settings: lowest reported IC50 to any gene target; read-out: min IC50; cited from earlier work
VEGFR2 = VEGFR2 (Homo sapiens, UniProt P35968); settings: relative IC50: reported IC50 toward VEGFR2 divided by next lowest reported IC50 to any gene target
Zmpste24−/− mice = experiment: Mouse model of progeria: body fat (Echo MRI), lean muscle, body weight, intrascapular brown fat; assay type: in vivo; settings: oral gavage QD5 for 56 days
Experimental: Zmpste24 mice, a progeria model mouse line, were dosed with either 50 mg/kg Brivanib alaninate for 56 days, 5 days on, 2 days off (QD5), or vehicle alone. The dose was administered via oral gavage as a suspension of 18% (w/v) PEG400 2% (w/v) Tween-80 in water . The vehicle alone was 18% (w/v) PEG400 2% (w/v) Tween-80 in water.
The body fat of the mice was measured by an Echo MRI throughout the treatment.
Samples of intrascapular brown adipose tissue from 15 week old mice treated with Brivanib Alaninate or vehicle for 56 days underwent Hematoxylin and Eosin (H&E) staining.
Zmpste24−/− mice, a progeria model mouse line, were dosed with either 25 mg/kg SU5402 for 56 days, 5 days on, 2 days off (QD5) or vehicle alone. The dose was administered via oral gavage as a suspension of 5% (w/v) DMSO 9% (w/v) PEG400 1% (w/v) Tween-80 in saline. The vehicle alone was 5% (w/v) DMSO 9% (w/v) PEG400 1% (w/v) Tween-80 in saline.
The body fat of the mice was measured by an Echo […]. Lean muscle and body weight were also measured.
The dose was administered via oral gavage as a suspension of 18% (w/v) PEG400 2% (w/v) Tween-80 in water . The vehicle alone was 18% (w/v) PEG400 2% (w/v) Tween-80 in water.
The body fat of the mice was measured by an Echo MRI. […] There was also no alteration of intrascapular brown adipose tissue mass (FIG. 5D).
The dose was administered via oral gavage as a suspension of 18% (w/v) PEG400 2% (w/v) Tween-80 in water. The vehicle alone was 18% (w/v) PEG400 2% (w/v) Tween-80 in water.
The body fat of the mice was measured by an Echo MM. […] There was also no alteration of intrascapular brown adipose tissue mass (FIG. 6D).
The body fat of the mice was measure by an Echo MRI. […] There was also no alteration of intrascapular brown adipose tissue mass (FIG. 7D). […]

EPHX2 = biological target: T1, EPHX2 (Homo sapiens, UniProt P34913); settings: cited from earlier work
T1 sequence (P34913 1-555): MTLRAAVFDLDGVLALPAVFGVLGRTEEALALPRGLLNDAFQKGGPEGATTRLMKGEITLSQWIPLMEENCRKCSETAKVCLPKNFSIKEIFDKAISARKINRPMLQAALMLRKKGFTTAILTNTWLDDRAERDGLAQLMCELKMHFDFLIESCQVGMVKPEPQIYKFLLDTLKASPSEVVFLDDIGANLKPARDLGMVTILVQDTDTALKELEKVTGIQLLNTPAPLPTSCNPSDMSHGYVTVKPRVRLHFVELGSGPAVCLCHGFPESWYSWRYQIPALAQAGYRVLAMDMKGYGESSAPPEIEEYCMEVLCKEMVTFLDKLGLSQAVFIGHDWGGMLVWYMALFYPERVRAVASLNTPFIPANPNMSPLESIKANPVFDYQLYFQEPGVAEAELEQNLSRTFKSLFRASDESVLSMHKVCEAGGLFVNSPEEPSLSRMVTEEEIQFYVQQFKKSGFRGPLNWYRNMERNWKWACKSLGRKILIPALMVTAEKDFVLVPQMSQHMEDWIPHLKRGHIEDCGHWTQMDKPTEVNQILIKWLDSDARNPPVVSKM

VEGFR2 and FGFR1 = experiment: Selection of compounds that selectively inhibit both VEGFR2 and FGFR1 (average relative IC50); assay type: biochemical; settings: average of VEGFR2 and FGFR1 relative IC50;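 note: relative IC50 is the IC50 for VEGFR2 or FGFR1 divided by the next-lowest IC50 reported against any target gene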
FGFR1 = FGFR1 (Homo sapiens, UniProt P11362); settings: relative IC50: reported IC50 toward FGFR1 divided by next lowest reported IC50 to any gene target
FGFR1, sequence (P11362 22-822, species assumed): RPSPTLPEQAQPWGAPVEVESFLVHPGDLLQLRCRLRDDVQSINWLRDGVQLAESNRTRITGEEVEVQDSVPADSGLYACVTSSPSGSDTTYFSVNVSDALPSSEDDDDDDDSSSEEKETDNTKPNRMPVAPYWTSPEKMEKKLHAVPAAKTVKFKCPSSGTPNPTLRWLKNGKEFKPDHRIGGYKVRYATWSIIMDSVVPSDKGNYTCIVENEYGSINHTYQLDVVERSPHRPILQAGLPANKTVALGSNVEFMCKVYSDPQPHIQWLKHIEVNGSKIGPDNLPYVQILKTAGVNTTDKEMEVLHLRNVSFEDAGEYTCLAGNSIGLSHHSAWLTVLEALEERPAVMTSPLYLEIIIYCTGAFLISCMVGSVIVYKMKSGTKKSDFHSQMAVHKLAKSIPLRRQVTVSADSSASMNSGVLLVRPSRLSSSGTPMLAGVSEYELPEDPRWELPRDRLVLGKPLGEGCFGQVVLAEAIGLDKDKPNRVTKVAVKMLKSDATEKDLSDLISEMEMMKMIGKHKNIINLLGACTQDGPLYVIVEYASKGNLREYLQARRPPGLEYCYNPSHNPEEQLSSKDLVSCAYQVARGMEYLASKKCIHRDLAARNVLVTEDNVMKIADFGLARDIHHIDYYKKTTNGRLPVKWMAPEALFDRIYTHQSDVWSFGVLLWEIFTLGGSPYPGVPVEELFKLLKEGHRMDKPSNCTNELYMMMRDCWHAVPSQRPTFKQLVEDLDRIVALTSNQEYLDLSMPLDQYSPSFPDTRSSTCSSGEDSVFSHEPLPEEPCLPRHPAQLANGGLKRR

[1] = Brivanib alaninate 50, SU5402 25, Cediranib maleate 5, Regorafenib 10, infigratinib 5 mg/kg
[2] = SU5402 25, Cediranib maleate 5, Regorafenib 10, infigratinib 5 mg/kg

VEGFR2, sequence (P35968 20-1356, species assumed): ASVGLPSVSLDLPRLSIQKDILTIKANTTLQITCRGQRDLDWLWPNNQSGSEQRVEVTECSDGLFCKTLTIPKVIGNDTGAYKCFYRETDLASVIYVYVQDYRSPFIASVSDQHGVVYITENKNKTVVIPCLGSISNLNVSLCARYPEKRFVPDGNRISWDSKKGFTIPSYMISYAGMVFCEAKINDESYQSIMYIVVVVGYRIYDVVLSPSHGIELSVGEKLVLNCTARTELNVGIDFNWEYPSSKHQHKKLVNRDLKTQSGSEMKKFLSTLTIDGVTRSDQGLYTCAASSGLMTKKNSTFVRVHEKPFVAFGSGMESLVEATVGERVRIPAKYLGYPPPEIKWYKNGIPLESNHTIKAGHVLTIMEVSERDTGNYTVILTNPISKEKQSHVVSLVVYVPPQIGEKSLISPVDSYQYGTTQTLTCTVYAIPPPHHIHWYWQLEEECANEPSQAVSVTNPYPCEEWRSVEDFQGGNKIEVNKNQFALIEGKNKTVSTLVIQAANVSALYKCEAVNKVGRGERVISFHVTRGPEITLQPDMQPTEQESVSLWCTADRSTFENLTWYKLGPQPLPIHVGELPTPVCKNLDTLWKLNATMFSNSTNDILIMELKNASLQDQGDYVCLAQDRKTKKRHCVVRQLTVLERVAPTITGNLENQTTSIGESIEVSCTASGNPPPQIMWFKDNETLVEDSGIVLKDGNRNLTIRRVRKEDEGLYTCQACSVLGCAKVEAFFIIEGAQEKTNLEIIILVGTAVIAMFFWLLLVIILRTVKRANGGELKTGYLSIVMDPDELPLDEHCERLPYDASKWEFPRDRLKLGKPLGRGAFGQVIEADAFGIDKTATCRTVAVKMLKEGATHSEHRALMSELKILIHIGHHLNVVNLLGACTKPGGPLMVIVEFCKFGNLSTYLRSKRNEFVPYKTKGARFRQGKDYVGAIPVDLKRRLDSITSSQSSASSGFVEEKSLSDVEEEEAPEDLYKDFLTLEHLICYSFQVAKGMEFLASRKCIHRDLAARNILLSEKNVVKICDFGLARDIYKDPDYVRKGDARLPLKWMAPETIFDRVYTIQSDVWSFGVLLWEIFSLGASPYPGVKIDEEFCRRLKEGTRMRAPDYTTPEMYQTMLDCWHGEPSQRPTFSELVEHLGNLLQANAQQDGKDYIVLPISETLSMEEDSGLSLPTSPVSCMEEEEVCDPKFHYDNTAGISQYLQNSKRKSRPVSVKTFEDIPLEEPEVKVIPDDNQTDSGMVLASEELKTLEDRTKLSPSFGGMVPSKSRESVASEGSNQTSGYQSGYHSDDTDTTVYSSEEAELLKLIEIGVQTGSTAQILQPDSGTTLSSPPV

SMILES: CNC(=O)c1cc(Oc2ccc(NC(=O)Nc3ccc(Cl)c(C(F)(F)F)c3)c(F)c2)ccn1 [compound 11167602, Regorafenib]
- IC50 (any gene target): 1 nM
- VEGFR2, rIC50 (VEGFR2): 8.4
- Body fat (Echo MRI) vs vehicle (Zmpste24−/− mice; [1]): did not show an increase
- Intrascapular brown fat mass (percent of body weight) vs vehicle (Zmpste24−/− mice; [1]): no alteration
- Body weight vs vehicle (Zmpste24−/− mice; [2]): did not show an increase
- Lean muscle vs vehicle (Zmpste24−/− mice; [2]): did not show an increase
- IC50 (EPHX2): < 3 nM
- avg rIC50 (VEGFR2 and FGFR1): 5.7
- FGFR1, rIC50 (FGFR1): 3.0
